Reference: patent US20260207720A1, “COMPOSITIONS AND METHODS FOR TREATING FUNGAL INFECTIONS” (MUCPharm Pty Ltd, priority 2022, published 2026)

Key:
Format in all cases: cell-based
[1] = test system: Candida glabrata (clinical isolate); assay: Broth dilution susceptibility test, MIC and percent growth (Example 5); conditions: for MIC: 24 hours, 625 nm
Experimental: These experiments were conducted to determine the effect of BromAc alone and in combination with existing antifungal drugs against Candida glabrata (clinical isolate).
(§1) A. Preparation of inoculum: • 1. Candida glabrata was grown on Sabouraud dextrose agar (SDA) at 37° C. for 24-48 hrs. • 2. Following this, 5 colonies of 1 mm diameter were picked and suspended in 5 mL sterile saline (0.9% saline) and vortexed for 15 seconds. • 3. Working suspension is prepared as a 1:100 dilution from stock suspension with RPMI 1640 culture medium. • 4. The cell density is adjusted with a spectrophotometer to the transmittance produced by a 0.5 McFarland standard (0.08 to 0.1) OD at 625 nm wavelength.
(§2) • 1. For Bromelain, a stock concentration of 1 mg/ml Bromelain solution was prepared in RPMI media and diluted to test concentrations of 62.4, 31.2, 15.6 and 7.8 μg/ml in RPMI 1640 media. • 2. Acetylcysteine stock concentration is 200 mg/ml, diluted to 40, 20, 10, and 5 mg/ml concentrations in RPMI 1640 medium. • 3. These concentrations are prepared at 2× of the required concentrations in the final assay plate.
(§3) Antifungal stock concentrations are as follows— • 1. Amphotericin B, Stock concentration: 250 μg/ml in water. • 2. Posaconazole, Original concentration: 300 mg in 16.7 ml, Working stock concentration: 1 mg/ml in DMSO. • 3. Fluconazole, Original concentration: 100 mg in 50 ml, Working stock concentration: 1 mg/ml in DMSO. • 4. The final concentration was prepared in RPMI 1640 media and concentrations range was 0.01-0.5 μg/mL for amphotericin B, 0.01-2 μg/mL for posaconazole and 0.01-64 μg/mL for fluconazole. • 5. These concentrations were prepared at 2× of the required concentrations in the final assay plate.
(§4) • 1. Wells of the 96-well plates were inoculated with appropriate concentrations and volumes of drugs. • 2. Sterility control and growth controls are included in each plate. • 3. Each 96-well plate (except the control wells) contains 100 μL of double strength (twice the final antifungal drug) concentrations. • 4. 100 μL of the fungal suspension is added to 96-well plates (except the sterility control wells). • 5. The growth control wells contained 100 μL of sterile drug-free medium and 100 μL of inoculum suspension, while the sterility control wells contained 200 μl of sterile drug-free medium. • 6. Plates are then incubated at 37° C. and read at 625,430, and 530 nm wavelengths. • 7. Data from 24 hours and absorbance at 625 nm were used for analysis.

[2] = test system: Cunninghamella; assay: Susceptibility assay of antifungals with BromAc (Example 4); conditions: for Observed inhibitory effect: antifungal in combination with BromAc (5 mg/ml Acetylcysteine+12.5 μg/ml Bromelain) vs alone
Experimental: (§5) The in vitro antifungal properties of Bromelain, Acetylcysteine, BromAc, Amphotericin B, Isavuconazole, Fluconazole and Posaconazole were determined using a broth microdilution method in round bottom 96 well plates in accordance with standard procedures defined by the Clinical Laboratory Standards Institute (CLSI).
(§6) Unless otherwise described, fungal cultures were grown on potato dextrose agar plates at 35° C. until mature (appearance of conidia) and used to prepare suspensions in sterile water. Suspensions were diluted in RPMI 1:60. These suspensions were then added in equal volume to solutions containing the candidate species described above and incubated at 35° C. for 24 hr. Plates were then analysed for fungal growth inhibition and MIC values determined.
(§7) BromAc (5 mg/ml Acetylcysteine+12.5 μg/ml Bromelain) was used in combination with Amphotericin B, Isavuconazole, Posaconazole and Fluconazole. The MIC values of these four antifungal agents against the fungus described below were calculated and compared with their corresponding MIC values in the presence of BromAc, using the standard susceptibility assays described above.
(§8) The fungal strains set out in Table 2, all of which were sourced from a range of clinical isolates from Australian hospitals, were used in these experiments to gain a further understanding of the efficacy of BromAc in combination with Amphotericin B, Isavuconazole, Posaconazole and Fluconazole.

[3] = test system: Candida kruseii; assay: as above; conditions: antifungal in combination with BromAc (5 mg/ml Acetylcysteine+12.5 μg/ml Bromelain) vs alone
Experimental: as §5, §6, §7, §8

[4] = test system: Mucor circinelloides; assay: as above; conditions: for Observed inhibitory effect: antifungal in combination with BromAc (5 mg/ml Acetylcysteine+12.5 μg/ml Bromelain) vs alone; for isolates with increased sensitivity: antifungal with BromAc
Experimental: as §5, §6, §7, §8

[5] = test system: Lomentospora; assay: as above; conditions: antifungal in combination with BromAc (5 mg/ml Acetylcysteine+12.5 μg/ml Bromelain) vs alone
Experimental: as §5, §6, §7, §8

[6] = test system: Cryptococcus; assay: as above; conditions: for Observed inhibitory effect: antifungal in combination with BromAc (5 mg/ml Acetylcysteine+12.5 μg/ml Bromelain) vs alone; for isolates with more than 10× increase: antifungal with BromAc
Experimental: as §5, §6, §7, §8

[7] = test system: Candida glabrata; assay: as above; conditions: for Observed inhibitory effect: antifungal in combination with BromAc (5 mg/ml Acetylcysteine+12.5 μg/ml Bromelain) vs alone; for isolates with more than a 10× increase in sensitivity: antifungal with BromAc
Experimental: as §5, §6, §7, §8

[8] = test system: Licthemia; assay: as above; conditions: antifungal in combination with BromAc (5 mg/ml Acetylcysteine+12.5 μg/ml Bromelain) vs alone
Experimental: as §5, §6, §7, §8

[9] = test system: Candida auris; assay: as above; conditions: for isolates with more than 10× increase: Candida auris, antifungal with BromAc; for Observed inhibitory effect: Candida aurus, antifungal in combination with BromAc (5 mg/ml Acetylcysteine+12.5 μg/ml Bromelain) vs alone
Experimental: as §5, §6, §7, §8

[10] = test system: Scedosporium; assay: as above; conditions: antifungal in combination with BromAc (5 mg/ml Acetylcysteine+12.5 μg/ml Bromelain) vs alone
Experimental: as §5, §6, §7, §8

[11] = test system: Candida tropicalis; assay: as above; conditions: for Observed inhibitory effect: antifungal in combination with BromAc (5 mg/ml Acetylcysteine+12.5 μg/ml Bromelain) vs alone; for isolates with more than a 10× increase in sensitivity: antifungal with BromAc
Experimental: as §5, §6, §7, §8

[12] = test system: Aspergillus; assay: as above; conditions: antifungal in combination with BromAc (5 mg/ml Acetylcysteine+12.5 μg/ml Bromelain) vs alone
Experimental: as §5, §6, §7, §8

[13] = test system: Fusarium; assay: as above; conditions: antifungal in combination with BromAc (5 mg/ml Acetylcysteine+12.5 μg/ml Bromelain) vs alone
Experimental: as §5, §6, §7, §8

[14] = test system: Candida parapslosis; assay: as above; conditions: for increase in sensitivity: Candida parapsilosis, antifungal with BromAc; for Observed inhibitory effect: Candida parapslosis, antifungal in combination with BromAc (5 mg/ml Acetylcysteine+12.5 μg/ml Bromelain) vs alone
Experimental: as §5, §6, §7, §8

[15] = test system: Candida Krusei (ATCC strain 6258); assay: Broth dilution susceptibility test, MIC and percent growth (Example 6); conditions: for effect at lower doses / concentrations compared to GC (in words): below the MIC (Posaconazole 0.03 μg/ml)
Experimental: as §1, §2, §3, §4
These experiments were conducted to determine the effect of BromAc alone and in combination with existing antifungal drugs against Candida Krusei (ATCC strain 6258).
The method used in these experiments is essentially the same as that described above in Example 5.

Structure (SMILES) | Observed inhibitory effect [2] | Observed inhibitory effect [3] | Observed inhibitory effect [4] | isolates with increased sensitivity [4] | Observed inhibitory effect [5] | Observed inhibitory effect [6] | isolates with more than 10× increase [6] | Observed inhibitory effect [7] | isolates with more than a 10× increase in sensitivity [7] | Observed inhibitory effect [8] | isolates with more than 10× increase [9] | Observed inhibitory effect [9] | Observed inhibitory effect [10] | Observed inhibitory effect [11] | isolates with more than a 10× increase in sensitivity [11] | Observed inhibitory effect [12] | Observed inhibitory effect [13] | increase in sensitivity [14] | Observed inhibitory effect [14] | effect at lower doses / concentrations compared to GC (in words) [15] | further results
C[C@@H]1[C@H](O)[C@@H](C)/C=C/C=C/C=C/C=C/C=C/C=C/C=C/[C@H](O[C@@H]2O[C@H](C)[C@@H](O)[C@H](N)[C@@H]2O)C[C@@H]2O[C@](O)(C[C@@H](O)C[C@@H](O)[C@H](O)CC[C@@H](O)C[C@@H](O)CC(=O)O[C@H]1C)C[C@H](O)[C@H]2C(=O)O [Amphotericin B] | Possible | Strong (Strong = 5-10x (or greater) inhibitory effect) | Strong (Strong = 5-10x (or greater) inhibitory effect) | 2 of 2 | No effect | Strong (Strong = 5-10x (or greater) inhibitory effect) | 5 of 5 | Strong (Strong = 5-10x (or greater) inhibitory effect) | 5 of 5 | Moderate (Moderate = 1-5x inhibitory effect) | 2 of 5 | Moderate (Moderate = 1-5x inhibitory effect) | No effect | Strong (Strong = 5-10x (or greater) inhibitory effect) | 4 of 5 | No effect | No effect | ~10 × | Strong (Strong = 5-10x (or greater) inhibitory effect) | significant inhibition | MIC ([1]; Nakaseomyces glabratus, measured at 90% growth inhibition): 1 µg/mL; MIC ([15]; Pichia kudriavzevii, ATCC6258, close to 90% inhibition): 1 µg/mL
CC[C@@H]([C@H](C)O)n1ncn(-c2ccc(N3CCN(c4ccc(OC[C@@H]5CO[C@@](Cn6cncn6)(c6ccc(F)cc6F)C5)cc4)CC3)cc2)c1=O [Posaconazole] | Moderate (Moderate = 1-5x inhibitory effect) | Strong (Strong = 5-10x (or greater) inhibitory effect) | Strong (Strong = 5-10x (or greater) inhibitory effect) | 1 of 2 | No effect | Strong (Strong = 5-10x (or greater) inhibitory effect) | 5 of 5 | Strong (Strong = 5-10x (or greater) inhibitory effect) | 5 of 5 | Moderate (Moderate = 1-5x inhibitory effect) | 4 of 5 | Strong (Strong = 5-10x (or greater) inhibitory effect) | Possible | Strong (Strong = 5-10x (or greater) inhibitory effect) | 4 of 5 | Moderate (Moderate = 1-5x inhibitory effect) | No effect | more than 10 × | Strong (Strong = 5-10x (or greater) inhibitory effect) | no significant inhibition | MIC ([1]; Nakaseomyces glabratus, 50% growth inhibition): 2 µg/mL; inhibition at 2 µg/mL ([1]; Nakaseomyces glabratus, at 2 μg/ml, read-out: decline in C. glabrata viability over the growth control): 25%; effect on C. glabrata viability / growth (in words) ([1]; at the concentrations tested, FIGS. 3-7): weaker antifungal effect; effect at lower concentration compared to growth control (in words) ([1]; concentrations lower than the MIC): slight decline; interaction with BromAc (in words) ([2]; antifungal with BromAc): some synergy; MIC ([15]; Pichia kudriavzevii, ATCC6258, FIG. 10): 1 µg/mL; inhibition at 1 µg/mL ([15]; Pichia kudriavzevii, ATCC6258, Posaconazole 1 ug/ml, Fluconazole 32 μg/ml, read-out: activity (growth inhibition) at its MIC): > 50%
